These results are taken from patent US20260335348A1, “PHARMACEUTICAL FORMS OF A CD73 INHIBITOR” (ORIC Pharmaceuticals, Inc., priority 2022, published 2026).

Molecules are shown by their SMILES. Converted amounts (≈) assume the structure as drawn. Where two headings read alike, the source gives them in different places.

Data set [1] can be described thus: Solubility of gentisate Form 2 of Compound 1 in water, SGF, FaSSIF and FeSSIF after 4 hours at 37 °C (HPLC). The class given is physicochemical. The protocol:
The solubility of a polymorphic form of a gentisate form of Compound 1 was measured in water, simulated gastric fluid (SGF), fasted-state simulated intestinal fluid (FaSSIF), and fed-state simulated intestinal fluid (FeSSIF) after 4 hours and at 37 °C as follows.
The SGF media was prepared by weighing 49.5 mg of NaCl and 25.4 mg of Triton X-100 into a 100-mL volumetric flask. A volume of purified water was added to the flask and the resulting mixture was sonicated until all solids were dissolved. About 1.632 mL of HCl solution (1 M) were then added and sufficient purified water to the target volume and to adjust the pH to 1.8. The solution was then diluted to volume with purified water, mixed well and the pH value was measured to be 1.83.
A FaSSIF buffer was prepared by weighing 340.8 mg of NaH2PO4, 43.0 mg of NaOH and 619.6 mg of NaCl into a 100-mL volumetric flask. A volume of purified water was added to the flask and the resulting mixture was sonicated until the solids had dissolved. A second volume of purified water was added to the flask to adjust the pH to 6.5. The solution was diluted with another volume of purified water, mixed, and the pH value was measured to be 6.54. The FaSSIF media was prepared by weighing 110.4 mg of SIF powder into a 50-mL volumetric flask to which a volume of FaSSIF dissolving buffer was added. The resulting mixture was sonicated until the SIF powder dissolved. Then mixture was then diluted to volume with FaSSIF dissolving buffer and mixed well. The FaSSIF solution was equilibrated for 2 hours at room temperature before it was used.
A FeSSIF dissolving buffer was prepared by weighing 0.82 mL of glacial acetic acid, 404.9 mg of NaOH and 1188.2 mg of NaCl into a 100-mL volumetric flask. A volume of purified water was added to the flask and the mixture was sonicated until the solids were dissolved. A second volume of purified water was added to the target volume to adjust the pH to 5.0. The solution was diluted with a volume of purified water, mixed well the pH value was measured to be 4.96. FeSSIF media was prepared by weighing 559.6 mg of SIF powder into a 50-mL volumetric flask. A volume of FeSSIF dissolving buffer was added to the flask and the resulting mixture was sonicated the SIF powder was dissolved. A second volume FeSSIF dissolving buffer was added and the resulting mixture was mixed well. The FeSSIF solution was equilibrated for 2 hours to room temperature before use.
An Agilent 1260 high performance liquid chromatography (HPLC) instrument equipped with a DAD detector, a Waters H-Class UPLC with PDA detector was used in the solubility measurements using the conditions set forth in Table 6.
About 10 mg of a gentisate Form 2 of Compound 1 (calculated by weight of the free base of Compound 1) was placed into a 3 mL glass vial and 1 mL of the respective media (water, SGF, FaSSIF and FeSSIF) was added into each glass vial. A cap was placed on each of the vials and they were rolled at 37 °C (25 rpm) for 4 hours. The suspension was then extracted into a centrifugation tube prior to centrifugation (10000 rpm, 37 °C, 5 min) and filtration (0.22 μm PTFE membrane). The resulting supernatant was analyzed by HPLC and the pH was determined. The solubility of the polymorphic form of a gentisate Form 2 of Compound 1 measured was as set forth above was as set forth in Table 7.

Data set [2] is described as follows: Stability of Form 2 of a gentisate form of Compound 1 under storage conditions (reverse-phase HPLC impurities, XRPD). The format is physicochemical. The note with it: for Total impurities present: reverse-phase HPLC. The protocol: To measure stability of the Form 2 of a gentisate form of Compound 1 under storage conditions, samples of Form 2 of a gentisate form of Compound 1 were placed in double low-density polyethylene bags with desiccant between the bags and each was placed into a high-density polyethylene drum. One drum was stored at a temperature of 5 °C and samples of the material were taken at 1 month and 3 months, and the samples were analyzed for the presence of impurities. The other drum was stored at a temperature of 25 °C and at 60% relative humidity (RH), samples of the materials were taken at 1 month and 3 months, and the samples were analyzed for the presence of impurities. The amount of the Form 2 of a gentisate form of Compound 1, and the amount ofany impurities, in each sample was measured by reverse-phase high performance liquid chromatography using the test conditions set and solvent gradients forth in Table 13 and Table 14. The samples were tested to determine the amount remaining of Form 2 at each time point, and the measurements were conducted by x-ray powder diffraction (XRPD) according to USP <941>.

Setting [3] is: storage 5 °C, initial (time = zero).
Where [4] appears, read: storage 25 °C and 60% RH, 1 month.
The mark [5] stands for this setting: storage 25 °C and 60% RH, 3 months.
The mark [6] stands for this setting: storage 25 °C and 60% RH, initial (time = zero).

As to `O=P(O)(O)[C@@](CO)(COCc1nn[nH]n1)OC[C@H]1O[C@@H](n2ncc3c(NC4CCCC4)nc(Cl)nc32)[C@H](O)[C@@H]1O` [Form 2 of a gentisate form of Compound 1], the “pH (of supernatant)” value in data set [1] (fasted-state simulated intestinal fluid (FaSSIF)) was 2.5; in data set [1] (fed-state simulated intestinal fluid (FeSSIF)), 4.4; in data set [1] (simulated gastric fluid (SGF)), 1.7; in data set [1] (water), 1.7. Besides, the solubility at 4 h in data set [1] (fasted-state simulated intestinal fluid (FaSSIF), pH 2.5, read-out: Solubility (calculated as the amount of free base of Compound 1)) is above 10.2 mg/mL; in data set [1] (fed-state simulated intestinal fluid (FeSSIF), pH 4.4, read-out: Solubility (calculated as the amount of free base of Compound 1)), above 9.42 mg/mL; in data set [1] (simulated gastric fluid (SGF), pH 1.7, read-out: Solubility (calculated as the amount of free base of Compound 1)), above 9.71 mg/mL; in data set [1] (water, pH 1.7, read-out: Solubility (calculated as the amount of free base of Compound 1)), 26.2 mg/mL (≈ 43.2 mM). Further, the XRPD result is given as “Crystalline” in data set [2] (storage 5 °C, 1 month); “Crystalline” in data set [2] (storage 5 °C, 3 months); “Crystalline” in data set [2] (setting [3]); “Crystalline” in data set [2] (setting [4]); “Crystalline” in data set [2] (setting [5]); “Crystalline” in data set [2] (setting [6]). Also, the Total impurities present in data set [2] (storage 5 °C, 1 month) was 4.5 % area; in data set [2] (storage 5 °C, 3 months), 4.2 % area; in data set [2] (setting [3]) it was 4.4 % area; in data set [2] (setting [4]) it was 4.5 % area; in data set [2] (setting [5]), 4.3 % area; in data set [2] (setting [6]) it was 4.4 % area. For the same compound, the Stability entry is recorded as “stable up to 3 months” in data set [2] (stored at 5 °C); “stable up to 3 months” in data set [2] (stored at 25 °C and at 60% RH).
